Calls of active or inactive are those of the source. The rule behind the calls is not given here.
Assays:
HT-29 = experiment: Cytotoxicity against human HT-29 cells after 24 hrs by MTT assay; assay type: functional, cell-based; conditions: HT-29, 24 h
MCF7 [1] = experiment: cells; conditions: Homo sapiens, MCF7, 24 h
Description: Cytotoxicity against human MCF7 cells after 24 hrs by MTT assay

PC-3 = experiment: cells; conditions: Homo sapiens, PC-3, 24 h
Description: Cytotoxicity against human PC3 cells after 24 hrs by MTT assay

U-937 = experiment: Cytotoxicity against human U937 cells after 24 hrs by MTT assay; assay type: functional, cell-based; conditions: U-937, 24 h
HepG2 = experiment: cells; conditions: Homo sapiens, HepG2, 24 h
Description: Cytotoxicity against human HepG2 cells after 24 hrs by MTT assay

[2] = Cytotoxicity against human Calu cells after 24 hrs by MTT assay; assay type: functional, cell-based
[3] = Cytotoxicity against human HGF cells after 24 hrs by MTT assay; assay type: cell-based
MCF7 [4] = experiment: Cell cycle arrest in human MCF7 cells assessed as accumulation at G1 phase at 50 to 5000 nM after 24 hrs by propidium iodide staining-based FACS analysis relative to control; assay type: functional
[5] = target: T1, Tumour suppressor p53/oncoprotein Mdm2 (Homo sapiens) (UniProt P04637+Q00987); experiment: Inhibition of MDM2-p53 interaction in human MCF7 cells assessed as p53 accumulation at 50 nM after 24 to 72 hrs by Western blot analysis; assay type: cell-based
MCF7 [6] = experiment: Induction of apoptosis in human MCF7 cells assessed as increase in p53 expression level at 50 nM by Western blotting analysis; assay type: functional, cell-based; conditions: TDE = time-dependent effect
MCF7 [7] = experiment: Cell cycle arrest in human MCF7 cells assessed as accumulation at G2M phase at 50 to 5000 nM after 24 hrs by propidium iodide staining-based FACS analysis relative to control; assay type: functional
[8] = Cytotoxicity against human C643 cells after 24 hrs by MTT assay; conditions: C643, 24 h
MCF7 [9] = experiment: Induction of apoptosis in human MCF7 cells assessed as early apoptotic cells at 50 nM after 48 hrs by annexin V-FITC/propidium iodide staining based FACS flow cytometry (reference value: 4 %); assay type: functional
MCF7 [10] = experiment: Induction of apoptosis in human MCF7 cells assessed as increase in Bcl-xS expression level at 50 nM after 24 to 72 hrs by Western blotting analysis; assay type: functional, cell-based
MCF7 [11] = experiment: Induction of apoptosis in human MCF7 cells assessed as reduction in Bcl-xL expression level at 50 nM after 24 to 72 hrs by Western blotting analysis; assay type: functional, cell-based
[12] = target: T1, Tumour suppressor p53/oncoprotein Mdm2 (Homo sapiens); experiment: Inhibition of MDM2-p53 interaction in human MCF7 cells assessed as reduction in p53 level bound to MDM2 after 24 to 48 hrs by immunoprecipitation assay; assay type: cell-based
MCF7 [13] = experiment: Cell cycle arrest in human MCF7 cells assessed as accumulation at S phase at 50 to 5000 nM after 24 hrs by propidium iodide staining-based FACS analysis relative to control; assay type: functional
MCF7 [14] = experiment: Induction of apoptosis in human MCF7 cells assessed as accumulation of caspase-3 cleavage product at 50 nM after 24 to 72 hrs by Western blotting analysis
MCF7 [15] = experiment: Cell cycle arrest in human MCF7 cells assessed as accumulation at G2M phase at 50 nM after 24 to 72 hrs by propidium iodide staining-based FACS analysis relative to control; assay type: functional
MCF7 [16] = experiment: Cell cycle arrest in human MCF7 cells assessed as accumulation at S phase at 50 nM after 24 to 72 hrs by propidium iodide staining-based FACS analysis relative to control; assay type: functional
MCF7 [17] = experiment: Induction of apoptosis in human MCF7 cells assessed as increase in p27 expression level at 50 nM by Western blotting analysis; assay type: functional, cell-based; conditions: TDE = time-dependent effect
[18] = target: T1, Tumour suppressor p53/oncoprotein Mdm2 (Homo sapiens); experiment: Inhibition of MDM2-p53 interaction in human MCF7 cells after 72 hrs by immunoprecipitation assay; assay type: cell-based
MCF7 [19] = experiment: Induction of apoptosis in human MCF7 cells assessed as increase in p21 expression level at 50 nM by Western blotting analysis; assay type: functional, cell-based; conditions: TDE = time-dependent effect
[20] = target: T1, Tumour suppressor p53/oncoprotein Mdm2 (Homo sapiens); experiment: Inhibition of MDM2-p53 interaction in human MCF7 cells assessed as MDM2 accumulation at 50 nM after 24 to 72 hrs by Western blot analysis; assay type: cell-based
MCF7 [21] = experiment: Induction of apoptosis in human MCF7 cells assessed as early apoptotic cells at 50 nM after 72 hrs by annexin V-FITC/propidium iodide staining based FACS flow cytometry (reference value: 4 %); assay type: functional
MCF7 [22] = experiment: Induction of apoptosis in human MCF7 cells assessed as cytochrome C release at 50 nM after 72 hrs by Western blotting analysis; assay type: functional, cell-based
MCF7 [23] = experiment: Induction of apoptosis in human MCF7 cells assessed as accumulation at subG1 phase at 50 nM by propidium iodide staining-based FACS analysis; assay type: functional, cell-based; conditions: TDE = time-dependent effect
MCF7 [24] = experiment: Cell cycle arrest in human MCF7 cells assessed as accumulation at G1 phase at 50 nM after 24 to 72 hrs by propidium iodide staining-based FACS analysis relative to control; assay type: functional
[25] = Ratio of Doxorubicin IC50 to compound IC50 against human Calu cells; assay type: functional

T1 sequence (P04637 whole entry, looked up): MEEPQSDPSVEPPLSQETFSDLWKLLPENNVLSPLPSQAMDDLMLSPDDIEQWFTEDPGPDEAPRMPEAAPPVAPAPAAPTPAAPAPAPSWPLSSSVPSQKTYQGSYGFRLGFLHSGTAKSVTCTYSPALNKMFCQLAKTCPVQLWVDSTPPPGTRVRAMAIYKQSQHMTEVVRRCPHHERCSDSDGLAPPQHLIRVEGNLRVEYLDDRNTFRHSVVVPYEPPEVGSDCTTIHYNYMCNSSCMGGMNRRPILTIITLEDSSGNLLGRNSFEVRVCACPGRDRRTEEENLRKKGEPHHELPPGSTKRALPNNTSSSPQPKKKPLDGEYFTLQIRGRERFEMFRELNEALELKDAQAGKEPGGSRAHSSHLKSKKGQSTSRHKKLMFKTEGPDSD
T1 sequence (Q00987 whole entry, looked up): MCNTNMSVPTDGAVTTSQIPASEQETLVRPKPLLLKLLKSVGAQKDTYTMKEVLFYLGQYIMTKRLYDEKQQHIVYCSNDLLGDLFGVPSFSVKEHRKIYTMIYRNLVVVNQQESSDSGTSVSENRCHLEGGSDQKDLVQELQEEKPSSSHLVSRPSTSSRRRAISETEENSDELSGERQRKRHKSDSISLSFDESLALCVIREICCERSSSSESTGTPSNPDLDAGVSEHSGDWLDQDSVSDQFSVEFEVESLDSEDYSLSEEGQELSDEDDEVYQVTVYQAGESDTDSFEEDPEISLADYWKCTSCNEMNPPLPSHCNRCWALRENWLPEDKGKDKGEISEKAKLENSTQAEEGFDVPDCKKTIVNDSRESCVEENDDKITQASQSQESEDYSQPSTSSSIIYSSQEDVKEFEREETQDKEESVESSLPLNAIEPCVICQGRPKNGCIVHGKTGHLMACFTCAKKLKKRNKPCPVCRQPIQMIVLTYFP

`CCOC(=O)[C@@H]1CS[C@@]2(C(=O)N(C)c3ccc(Br)cc32)N1C(=O)c1ccccc1` gave an IC50 (HT-29) of 0.21 µM and an IC50 (MCF7 [1]) of 0.31 µM.

In the case of `CCOC(=O)C1=N[C@@]2(SC1)C(=O)N(C(=O)c1ccc(Cl)cc1)c1ccc(Br)cc12` (single isomer, unassigned), the IC50 (HT-29) is reported as 0.2 µM and the IC50 (MCF7 [1]) is reported as 0.86 µM.

With `COc1cccc2c1C(=O)c1c(O)c3c(c(O)c1C2=O)C[C@@](O)(C(=O)CO)C[C@@H]3O[C@H]1C[C@H](N)[C@H](O)[C@H](C)O1` [DOXORUBICIN] the IC50 (PC-3) was 0.75 µM, the IC50 (U-937) was 0.12 µM and the IC50 (HepG2) was 0.08 µM. The IC50 [2] was 1.81 µM and the IC50 [3] was 0.5 µM.

`CCOC(=O)[C@@H]1CS[C@@]2(C(=O)N(C)c3ccccc32)N1C(=O)C1CCCCC1` (mixture of isomers) gave an IC50 (HT-29) of 1.9 µM and an IC50 (MCF7 [1]) of 2.3 µM.

In the case of `CCOC(=O)[C@@H]1CS[C@@]2(C(=O)Nc3ccc(Br)cc32)N1C(=O)C1CCCCC1` (mixture of isomers), the IC50 (HT-29) is reported as 0.56 µM and the IC50 (MCF7 [1]) is reported as 0.22 µM.

In the case of `CCOC(=O)[C@@H]1CS[C@@]2(C(=O)N(C)c3ccccc32)N1C(=O)c1ccc(Cl)cc1`, the IC50 (HT-29) is reported as 0.18 µM and the IC50 (MCF7 [1]) is reported as 4.52 µM.

Work on `O=C1C2CSC3(C(=O)Nc4ccccc43)N2C(=O)N1Cc1ccc(Cl)cc1` (configuration not stated) yielded an IC50 (HT-29) of 1.6 µM and an IC50 (MCF7 [1]) of 1.21 µM.

`CCOC(=O)[C@@H]1CS[C@@]2(C(=O)Nc3ccc(C)cc32)N1C(=O)Cc1ccc(Cl)cc1` gave an IC50 (HT-29) of 0.78 µM and an IC50 (MCF7 [1]) of 4.81 µM.

`CCOC(=O)C1=N[C@@]2(SC1)C(=O)N(C(=O)C1CCCCC1)c1ccc(Br)cc12` showed an IC50 (HT-29) of 0.85 µM.

In the case of `CCOC(=O)[C@@H]1CS[C@]2(N1)C(=O)N(C(=O)c1ccc(Cl)cc1)c1ccccc12`, the IC50 (HT-29) is reported as 1.03 µM and the IC50 (MCF7 [1]) is reported as 1.01 µM.

`CCOC(=O)[C@@H]1CS[C@]2(N1)C(=O)N(C(=O)c1ccc(Cl)cc1)c1ccc(Br)cc12` gave an IC50 (HT-29) of 0.02 µM and an IC50 (MCF7 [1]) of 0.15 µM.

Molecule `CCOC(=O)[C@@H]1CS[C@@]2(C(=O)Nc3ccccc32)N1C(=O)Cc1ccc(Cl)cc1` has an IC50 (HT-29) of 1 µM and an IC50 (MCF7 [1]) of over 5 µM.

With `CCOC(=O)[C@@H]1CS[C@@]2(C(=O)Nc3ccc(Br)cc32)N1C(=O)c1ccc(Cl)cc1` the IC50 (HT-29) was 0.11 µM and the IC50 (MCF7 [1]) was 0.9 µM.

In the case of `CCOC(=O)[C@@H]1CS[C@@]2(C(=O)Nc3ccc(Br)cc32)N1C(=O)Cc1ccc(Cl)cc1`, the IC50 (HT-29) is reported as 0.66 µM and the IC50 (MCF7 [1]) is reported as 2.9 µM.

`CCOC(=O)[C@@H]1CS[C@@]2(C(=O)N(C)c3ccc(Br)cc32)N1C(=O)c1ccc(C)cc1` showed an IC50 (HT-29) of 0.09 µM and an IC50 (MCF7 [1]) of 0.06 µM.

In the case of `CCOC(=O)[C@@H]1CS[C@@]2(C(=O)N(C)c3ccc(Br)cc32)N1C(=O)C1CCCCC1` (mixture of isomers), the Activity (MCF7 [4]) is reported as “inactive”, the IC50 (PC-3) is reported as 0.41 µM and the inhibition [5] is reported as “Active”. The Activity (MCF7 [6]) was “tde”, the Activity (MCF7 [7]) was “inactive” and the IC50 [8] was 0.55 µM. The Activity (MCF7 [9]) was 10%, the IC50 (HT-29) was 0.07 µM and the Activity (MCF7 [10]) was “Active”. For the same molecule, the IC50 (U-937) was 0.07 µM, the Activity (MCF7 [11]) was “Active” and the inhibition [12] was “Active”. For the same molecule, the Activity (MCF7 [13]) was “inactive”, the Activity (MCF7 [14]) was “Active” and the Activity (MCF7 [15]) was “inactive”. For the same molecule, the IC50 (HepG2) was 0.14 µM, the Activity (MCF7 [16]) was “inactive” and the Activity (MCF7 [17]) was “tde”. The inhibition [18] was “inactive”, the Activity (MCF7 [19]) was “tde” and the IC50 [2] was 0.1 µM. The inhibition [20] was “Active”, the Activity (MCF7 [21]) was 12% and the Activity (MCF7 [22]) was “Active”. For the same molecule, the Activity (MCF7 [23]) was “tde”, the IC50 [3] was 1.6 µM and the Activity (MCF7 [24]) was “inactive”. The “Ratio IC50” value [25] was 18 and the IC50 (MCF7 [1]) was 0.04 µM.

`CCOC(=O)[C@@H]1CS[C@]2(N1)C(=O)N(C(=O)c1ccc(Cl)cc1)c1ccc(C)cc12` gave an IC50 (HT-29) of 0.23 µM and an IC50 (MCF7 [1]) of 3.46 µM.

`CCOC(=O)[C@@H]1CS[C@@]2(C(=O)Nc3ccc(C)cc32)N1C(=O)c1ccc(Cl)cc1` showed an IC50 (HT-29) of 1.09 µM and an IC50 (MCF7 [1]) of 2.12 µM.

Molecule `CCOC(=O)[C@@H]1CS[C@@]2(C(=O)N(C)c3ccc(C)cc32)N1C(=O)c1ccc(Cl)cc1` has an IC50 (HT-29) of 0.12 µM and an IC50 (MCF7 [1]) of 1.23 µM.

Work on `CCOC(=O)[C@@H]1CS[C@]2(N1)C(=O)N(C(=O)C1CCCCC1)c1ccc(Br)cc12` yielded an IC50 (HT-29) of 1.4 µM.

Molecule `CN1C(=O)[C@@]2(SC[C@@H](C(=O)O)N2C(=O)C2CCCCC2)c2cc(Br)ccc21` (mixture of isomers) has an IC50 (HT-29) of 1.9 µM and an IC50 (MCF7 [1]) of 2.01 µM.

In the case of `COc1ccc(C2=N[C@@H](c3ccc(Cl)cc3)[C@@H](c3ccc(Cl)cc3)N2C(=O)N2CCNC(=O)C2)c(OC(C)C)c1` (relative stereo) [NUTLIN-3], the IC50 (PC-3) is reported as 30.3 µM, the IC50 [8] is reported as 23 µM and the IC50 (U-937) is reported as 15.6 µM. It also gave an IC50 (HepG2) of 10.2 µM, an IC50 [2] of 27.2 µM and an IC50 [3] of 1.4 µM. For the same molecule, the IC50 (MCF7 [1]) was 2.9 µM.

Molecule `CCOC(=O)[C@@H]1CS[C@@]2(C(=O)N(C)c3ccc(Br)cc32)N1C(=O)Cc1ccc(Cl)cc1` has an IC50 (HT-29) of 0.36 µM and an IC50 (MCF7 [1]) of 0.27 µM.

`CCOC(=O)[C@@H]1CS[C@@]2(C(=O)N(C)c3ccc(C)cc32)N1C(=O)C1CCCCC1` (mixture of isomers) gave an IC50 (HT-29) of 1.1 µM and an IC50 (MCF7 [1]) of 1.2 µM.

`CCOC(=O)[C@@H]1CS[C@]2(C(=O)Nc3ccc(Br)cc32)N1C(=O)c1ccc(Cl)cc1` showed an IC50 (HT-29) of 2 µM and an IC50 (MCF7 [1]) of 3 µM.

In the case of `CCOC(=O)[C@@H]1CS[C@@]2(C(=O)Nc3ccccc32)N1C(=O)c1ccc(Cl)cc1`, the IC50 (HT-29) is reported as 3.69 µM and the IC50 (MCF7 [1]) is reported as 2.15 µM.

In the case of `CCOC(=O)[C@@H]1CS[C@@]2(C(=O)N(C)c3ccc(Br)cc32)N1C(=O)c1ccc(Cl)cc1`, the IC50 (HT-29) is reported as 0.08 µM and the IC50 (MCF7 [1]) is reported as 0.52 µM.
